Experimental data: patent EP2284541A1, “Fluorescence-based imaging and analysis of cells and cellular components using lipophilic dyes with improved specificity, spectral property and photostability” (Max-Planck-Gesellschaft zur Förderung der Wissenschaften …, priority 2009, dated 2011)
Several values for one entry are separate records, joined by “and”; a condition that tells them apart may be missing. Equal values may be shown once. Read-outs that look alike come from different tables or passages of the source.

Key:
[1] = Comparative lipophilicity: log P by direct solvent partitioning, measured in the fluorometer; assay type: physicochemical; settings: for log P: average, dye 0.1 µg/ml; for Δlog P: LD540 versus Bodipy 493/503
Description: Dyes were dissolved in octanol-saturated water or oil-saturated methanol at a concentration of 0.1 μg/ml, measured in the fluorometer and shaken with an equal volume of water-saturated octanol or methanol-saturated oil for 20 min. Phases were separated by centrifugation. For octanol/water coefficients, the concentration of dye in the water phase was measured and used for calculations of log P. For the oil/methanol system, 10 μl samples of both phases were taken, diluted into 990 μl of isopropanol and measured in the fluorometer. The ratio was used for calculation of log p. Values obtained in the octanol/water system indicated higher lipophilicity of LD540. Since log P values larger 3 obtained by direct solvent partitioning are prone to errors, we also measured in the immiscible pair sunflower oil/methanol, where log p values for lipophilic substances are much smaller and less error prone. […] All values are average +/- […] values were determined by Students t-test.

[2] = Spectral characteristics (excitation and emission maxima) in various solvents and in stained cells, spectrofluorometer; assay type: physicochemical
Description: Spectra were measured on a Jobin Yvon Fluoromax3 spectrofluorometer at 3 x 10^-7 M. Differentiated 3T3-L1 cells were stained with 0.2 µg/ml LD540 in DMEM + 10% FCS for 30 min, followed by three washes. Cells were trypsinized, suspended at 100.000 cells/ml in PBS and measured in a fluorescence cuvette.
^#Note that the excitation maximum fits to the one reported in U.S. Patent No. 5,446,157, while the emission maximum in said reference was indicated to be 560 nm.

[3] = Photobleaching of dyes in sunflower oil under constant illumination in a photometer cuvette; assay type: physicochemical; settings: 0.1 µg/ml in sunflower oil; constant irradiation at absorption maximum
Description: In a first experiment, the different dyes to be compared (LD540, Nile Red and Bodipy 493/503) were dissolved at 0.1 µg/ml in sunflower oil (which represents the cellular environment of the dyes) and constantly irradiated in a photometer cuvette at their respective absorption maximum. Excitation energy was equal for all three dyes. Every 15 seconds, fluorescence emission was recorded. […] The slope of the curves are directly proportional to the respective rate of photobleaching. Under these conditions, LD540 bleaches 3-times slower than Nile Red and 15-times slower than Bodipy 493/503.

[4] = reported in U.S. Patent No. 5,446,157; cited from earlier work
[5] = Spectral characteristics (excitation and emission maxima) in various solvents and in stained cells, spectrofluorometer; assay type: physicochemical; settings: Ethanol, 2 x 10^-4 M
[6] = Oil/methanol (sunflower oil), n = 3
[7] = 3T3-L1 cells stained with 0.2 µg/ml LD540, suspended in PBS

SMILES	log P ([1]; Octanol/water, n = 7)	log P [1, 6]	Δlog P ([1]; Octanol/water)	Δlog P ([1]; Oil/methanol)	Λ max exc [2, 7]	λ max em [2, 7]	Λ max exc ([2]; Ethanol, 3 x 10^-7 M)	λ max em ([2]; Ethanol, 3 x 10^-7 M)	Λ max exc ([2]; Hexane, 3 x 10^-7 M)	λ max em ([2]; Hexane, 3 x 10^-7 M)	Λ max exc ([2]; Sunflower oil, 3 x 10^-7 M)	λ max em ([2]; Sunflower oil, 3 x 10^-7 M)	Λ max exc ([2]; Water, 3 x 10^-7 M)	λ max em ([2]; Water, 3 x 10^-7 M)	bleaching, times slower than Nile Red [3]	emission maximum [4]	excitation maximum [4]	emission maximum ([5]; 1 mm cuvette)	emission maximum ([5]; 4 mm cuvette)
CC1=CC(C)=[N+]2C1=C(C)c1c(C)cc(C)n1[B-]2(F)F [Bodipy 493/503, reference compound]	3.50	0.31																	
CC1=C2C=C3CCCCC3=[N+]2[B-](F)(F)n2c1cc1c2CCCC1 [LD540]	4.38	0.75	0.88	0.44	540 nm and 540.2 nm	545 nm and 545.0 nm	536.0 nm	542.5 nm	539.7 nm	542.2 nm	540.2 nm	545.2 nm	534.8 nm	542.4 nm	3	560 nm	535 nm	550 nm	557 nm
